Data published in patent US20240285513A1, “TOPICAL COMPOSITION AGAINST FINE LINES AND WRINKLES” (priority 2021, published 2024).
Where “and” joins values, the source holds several entries; their conditions need not be identical. Identical values can stand only once. Marks after values point to notes of the source that are not given here.

Tests used:
Conditions in all cases: human
[1] = tested on: fine lines and wrinkles, glabella area; test: Comparative in vivo clinical study (Example 7): clinical grading of fine lines and wrinkles
Source text: (§1) The purpose of the comparative in vivo clinical study was to evaluate the efficacy of a combination of the three extracts for muscle relaxation and wrinkle reduction over four weeks of twice-daily application on Experimental Group 1 participants using a micro-roller (n=33) versus application on Experimental Group 2 participants without using a micro-roller (n=30). The combination of the three extracts was placed in a dermatologically acceptable vehicle as the test product. The dermatologically acceptable vehicle was designed to test the efficacy of the combination of the three extracts when applied with a micro-roller versus application without a micro-roller. Study participants in Experimental Group 1 used a 1.0 mm microroller. Study participants applied the composition containing the three extracts between their eyebrows in the morning and the evening after cleansing their face with a personal cleanser. For Experimental Group 1, study participants used the micro-roller 3 times per week in the evenings by rolling the micro-roller back and forth 4 to 5 times between eyebrows changing directions with each pass. […] The amounts of each extract used in the dermatologically acceptable vehicle was Rosmarinus officinalis leaf extract at 1 wt. %, Lavendula stoechas extract at 2 wt. %, and Acmella oleracea extract at 2 wt. %. […]

[2] = tested on: fine lines and wrinkles, glabella area; test: In vivo clinical study (Example 6): clinical grading of fine lines and wrinkles
[3] = tested on: muscle contraction in the glabella region; test: Comparative in vivo clinical study (Example 7): EMG muscle response with or without micro-roller
Source text: as §1

[4] = tested on: muscle contraction in the glabella region; test: In vivo clinical study (Example 6): electromyography (EMG) muscle response

Substance: onabotulinumtoxinA [BoTox]
- % Clinical Improvement of Wrinkles [1]: 31%* and 35%*
- % Clinical Improvement of Wrinkles [2]: 31%* and 35%*
- % EMG Response (AUC) [3]: 58%* and 40%*
- % EMG Response (AUC) [4]: 58%* and 40%*
